Laboratory results reported in patent US20250361273A1, “METHODS AND COMPOSITIONS” (priority 2024, published 2025).
Where a SMILES comes first, the peptide text is derived from it. Bridges are numbered along the chain shown (N, C = ends). [ ]: non-standard residue; d: D form. Trp(6-F) = N[C@@H](Cc1c[nH]c2cc(F)ccc12)C(=O)O; dPhe(4-F) = N[C@H](Cc1ccc(F)cc1)C(=O)O; dAgb = N=C(N)NCC[C@@H](N)C(=O)O; Ac4c(3-oxa) = NC1(C(=O)O)COC1; Pen = CC(C)(S)[C@H](N)C(=O)O

Experiments:
MC1R = MC1R (Homo sapiens, UniProt Q01726); assay: cAMP assay (human receptors), DiscoverX HitHunter, MC1R
Experimental: The cAMP Assay (Human Receptors)
The in vitro functional activity of peptides was determined via DiscoverX Hit Hunter® cAMP assays, adhering to manufacturer-specified protocols. Assays involved the use of HEK293 cells, each of which were engineered to express MC1R or MC4R receptors.
In accordance with standard procedures, cAMP Hunter cell lines, extracted from freezer stocks, were cultured in 20 μL volumes in white-walled, 384-well microplates. These cells were incubated at 37° C. for an appropriate duration before commencing testing procedures. The identification of cAMP modulation was determined using the DiscoverX HitHunter assay.
For gauging the response from agonists, cells were incubated with a specific peptide, after which the media was aspirated and replaced with a solution of 10 μL of HBSS/10 mM Hepes, known as Assay Buffer. A subsequent dilution of sample stocks yielded a 4× sample in the assay buffer, which was then added to the cells in equal quantities, followed by a 30-minute incubation at 37° C. The ensuing concentration of DMSO, the vehicle, was maintained at 1%. […]
Compound activity was evaluated using a Chemical and Biological Information System software (CBIS) data analysis suite. The results described were calculated on an average of the two points per concentration generated by the assay described above. […]

MC4R vs MC1R = assay: Selectivity calculation MC4R vs MC1R (division of cAMP EC50 values); type: cell-based, human
Experimental: Peptides, including comparator molecules were tested by assays listed below. Selectivity between receptors was assessed in part using cAMP assays, which test the activity of peptides through the Gs pathway.
Selectivity between any two receptors was calculated by a division of the EC50 values between the two receptors, for each individual peptide.

MC4R = biological target: T1, MC4R (Homo sapiens, UniProt P32245); assay: Bias calculation MC4R B-arrestin v MC4R cAMP; type: cell-based
T1 construct: host or cells: HEK293 (cAMP Hunter and PathHunter MC4R cell lines)
T1 sequence (P32245 whole entry): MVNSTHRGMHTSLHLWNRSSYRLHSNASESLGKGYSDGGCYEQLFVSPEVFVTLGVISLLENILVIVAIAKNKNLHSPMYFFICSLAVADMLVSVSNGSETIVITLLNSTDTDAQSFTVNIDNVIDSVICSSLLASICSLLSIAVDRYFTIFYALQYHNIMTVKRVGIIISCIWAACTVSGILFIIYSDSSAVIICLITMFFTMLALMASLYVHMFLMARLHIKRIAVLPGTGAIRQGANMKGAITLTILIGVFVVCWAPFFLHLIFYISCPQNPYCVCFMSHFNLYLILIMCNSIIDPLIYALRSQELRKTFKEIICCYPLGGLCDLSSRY
Source text: When comparing the selectivity of MC4R v MC1R, larger values indicate selectivity towards MC4R. When comparing the bias of MC4R B-arrestin v MC4R cAMP, larger values indicate bias towards B-arrestin.

Chain of MC1R (Q01726 whole entry): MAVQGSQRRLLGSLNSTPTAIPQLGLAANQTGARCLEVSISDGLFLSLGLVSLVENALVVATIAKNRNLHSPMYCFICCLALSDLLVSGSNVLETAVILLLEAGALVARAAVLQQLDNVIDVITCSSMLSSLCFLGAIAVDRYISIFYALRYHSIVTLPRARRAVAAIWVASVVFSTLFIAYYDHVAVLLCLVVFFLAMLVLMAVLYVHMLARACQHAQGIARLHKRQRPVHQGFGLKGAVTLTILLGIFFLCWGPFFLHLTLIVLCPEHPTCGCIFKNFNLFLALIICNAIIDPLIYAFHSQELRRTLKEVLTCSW

CCCC[C@H](NC(C)=O)C(=O)N[C@H]1CC(=O)NCCCC[C@@H](C(=O)O)NC(=O)[C@H](Cc2c[nH]c3ccccc23)NC(=O)[C@H](CCCN=C(N)N)NC(=O)[C@@H](Cc2ccccc2)NC(=O)[C@H](Cc2cnc[nH]2)NC1=O [Bremelanotide]
EC50 (MC1R): 0.17 nM

CC(=O)N[C@H](CCNC(=N)N)C(=O)N[C@H]1CSSC(C)(C)[C@@H](C(N)=O)NC(=O)[C@H](Cc2c[nH]c3cc(F)ccc23)NC(=O)[C@H](CCCNC(=N)N)NC(=O)[C@@H](Cc2ccc(F)cc2)NC(=O)[C@H](CCC(N)=O)NC(=O)C2(COC2)NC1=O [Molecule 1158, (7R,12R,15S,18S,21R,24S)-7-((R)-2-acetamido-4-guanidinobutanamido)-24-(3-amino-3-oxopropyl)-15-((6-fluoro-1H-indol-3-yl)methyl)-21-(4-fluorobenzyl)-18-(3-guanidinopropyl)-11,11-dimethyl-6,14,17,20,23,26-hexaoxo-2-oxa-9,10-dithia-5,13,16,19,22,25-hexaazaspiro[3.22]hexacosane-12-carboxamide] (Ac-[dAgb]C[Ac4c(3-oxa)]Q[dPhe(4-F)]R[Trp(6-F)][Pen]-NH2; disulfide 2-8)
Selectivity: MC4R v MC1R (MC4R vs MC1R; Compounds with Gln at X4, larger values indicate selectivity towards MC4R): *** (*** denotes MC4R vs MC1R selectivity of about >7.40)
Selectivity: MC4R v MC1R (MC4R vs MC1R; Table 6 (A), larger values indicate selectivity towards MC4R): *** (*** denotes MC4R vs MC1R selectivity of about >7.40)
Selectivity: MC4R v MC1R (MC4R vs MC1R; Table 6 (B), larger values indicate selectivity towards MC4R): *** (*** denotes MC4R vs MC1R selectivity of about >7.40)
Selectivity: MC4R v MC1R (MC4R vs MC1R; Table 7, Aib(O-cyclic) at X3, larger values indicate selectivity towards MC4R): *** (*** denotes MC4R vs MC1R selectivity of about >7.40)
Selectivity: MC4R v MC1R (MC4R vs MC1R; Table 14, Aib(O-cyclic) at X3, larger values indicate selectivity towards MC4R): *** (*** denotes MC4R vs MC1R selectivity of about >7.40)
Selectivity: MC4R v MC1R (MC4R vs MC1R; Table 20, Gln at X4): *** (*** denotes MC4R vs MC1R selectivity of about >7.40)
Selectivity: MC4R v MC1R (MC4R vs MC1R; calculated from cAMP functional screening, larger values indicate selectivity towards MC4R): *** (*** denotes MC4R vs MC1R selectivity of about >7.40)
Bias: MC4R B-arrestin v MC4R cAMP (MC4R; Compounds with Gln at X4, larger values indicate bias towards B-arrestin): + (+ denotes MC4R B-arrestin v MC4R cAMP bias having a range of >0.00 to ≤2.00)
Bias: MC4R B-arrestin v MC4R cAMP (MC4R; Table 6 (B), larger values indicate bias towards B-arrestin): + (+ denotes MC4R B-arrestin v MC4R cAMP bias having a range of >0.00 to ≤2.00)
Bias: MC4R B-arrestin v MC4R cAMP (MC4R; Table 7, Aib(O-cyclic) at X3, larger values indicate bias towards B-arrestin): + (+ denotes MC4R B-arrestin v MC4R cAMP bias having a range of >0.00 to ≤2.00)
Bias: MC4R B-arrestin v MC4R cAMP (MC4R; Table 20, Gln at X4): + (+ denotes MC4R B-arrestin v MC4R cAMP bias having a range of >0.00 to ≤2.00)
